# Measurements: patent US8476265B2, “Compounds-801” (AstraZeneca AB, priority 2010, dated 2013)
# Structures can show the parent of a compound that is named as a salt.
# Key:
# [1] = biological target: T1, Adrenergic β2 (Homo sapiens, UniProt P07550); experiment: Adrenergic β2 mediated cAMP production in H292 cells (AlphaScreen), concentration response; type: cell-based; details: for EC50: 60 min, 300 μM rolipram, read-out: β2 pEC50 (converted); for β2 Intrinsic Activity: fraction relative to the maximum activity determined for formoterol
# T1 construct: Adherent H292 cells are removed from tissue culture flasks by treatment with Accutase™ cell detachment solution; endogenous in cells; host or cells: H292 cells
# Experimental: Assay for Adrenergic 132 Mediated cAMP Production
# H292 cells are grown in 225 cm2 flasks incubator at 37° C., 5% CO2 in RPMI medium containing 10% (v/v) FBS (foetal bovine serum) and 2 mM L-glutamine.
# Adherent H292 cells re removed from tissue culture flasks by treatment with Accutase™ cell detachment solution for 15 minutes. Flasks are incubated for 15 minutes in a humidified incubator at 37° C., 5% CO2. Detached cells are re-suspended in RPMI media (containing 10% (v/v) FBS and 2 mM L-glutamine) at 0.1×10^6 cells per mL. 10000 cells in 100 μl, are added to each well of a tissue-culture-treated 96-well plate and the cells incubated overnight in a humidified incubator at 37° C., 5% CO2. The culture media is removed and cells are washed twice with 100 μL assay buffer and replaced with 50 μl assay buffer (HBSS solution containing 10 mM HEPES pH7.4 and 5 mM glucose). Cells are rested at room temperature for 20 minutes after which time 25 μl of rolipram (1.2 mM made up in assay buffer containing 2.4% (v/v) dimethylsulphoxide) is added. Cells are incubated with rolipram for 10 minutes after which time test compounds are added and the cells are incubated for 60 minutes at room temperature. The final rolipram concentration in the assay is 300 μM and final vehicle concentration is 1% (v/v) dimethylsulphoxide. The reaction is stopped by removing supernatants, washing once with 100 μL assay buffer and replacing with 50 μL lysis buffer. The cell monolayer is frozen at −80° C. for 30 minutes (or overnight).
# AlphaScreen™ cAMP detection
# The concentration of cAMP (cyclic adenosine monophosphate) in the cell lysate is determined using AlphaScreen™ methodology. The frozen cell plate is thawed for 20 minutes on a plate shaker then 10 μL of the cell lysate is transferred to a 96-well white plate. 40 μL of mixed AlphaScreen™ detection beads pre-incubated with biotinylated cAMP, is added to each well and the plate incubated at room temperature for 3 hours in the dark. The AlphaScreen™ signal is measured using an EnVision spectrophotometer (Perkin-Elmer Inc.) with the recommended manufacturer's settings. cAMP concentrations are determined by reference to a calibration curve determined in the same experiment using standard cAMP concentrations. Concentration response curves for agonists are constructed and data is fitted to a four parameter logistic equation to determine both the pEC50 and Intrinsic Activity. Intrinsic Activity is expressed as a fraction relative to the maximum activity determined for formoterol in each experiment.
# [2] = biological target: T2, human muscarinic acetylcholine M3 receptor (Homo sapiens, UniProt P20309); experiment: Muscarinic 3 receptor binding assay ([3H]NMS competition, SPA), pIC50; details: [3H]NMS 0.1 nM, CHO-K1 cell membranes expressing human M3 receptor
# T2 construct: expressed in transfected cells; host or cells: CHO-K1 (Chinese Hamster Ovary) cell membranes
# Experimental: Muscarinic 3 Receptor Binding Assay
# The affinity (pIC50) of compounds binding to the M3 receptor is determined by competition binding of [^3H]N-methyl scopolamine (NMS) to CHO-K1 (Chinese Hamster Ovary) cell membranes expressing the human muscarinic acetylcholine M3 receptor (M3-ACh) in a scintillation proximity assay (SPA) format.
# SPA beads are precoated with membranes and then incubated at 2 mg of beads per well with serial dilutions of compounds of the invention, [^3H]NMS at 0.1 nM, quarter Kd (experimentally determined dissociation constant) and assay buffer (20 mM HEPES pH 7.4 containing 5 mM MgCl2 and 0.1% (w/v) bovine serum albumin). The assay is conducted in a final volume of 200 μL, in the presence of 1% (v/v) dimethyl sulphoxide (DMSO). Total binding of [^3H]NMS is determined in the absence of competing compound and non-specific binding of [^3H]NMS is determined in the presence of 1 μM atropine. The plates are incubated for 16 hours at room temperature and then read on Wallac Microbeta™ using a normalised ^3H protocol. The pIC50, defined as the negative logarithm of the molar concentration of compound required for 50% reduction in specific [^3H]-NMS binding, is determined.
# T2 sequence (P20309 whole entry): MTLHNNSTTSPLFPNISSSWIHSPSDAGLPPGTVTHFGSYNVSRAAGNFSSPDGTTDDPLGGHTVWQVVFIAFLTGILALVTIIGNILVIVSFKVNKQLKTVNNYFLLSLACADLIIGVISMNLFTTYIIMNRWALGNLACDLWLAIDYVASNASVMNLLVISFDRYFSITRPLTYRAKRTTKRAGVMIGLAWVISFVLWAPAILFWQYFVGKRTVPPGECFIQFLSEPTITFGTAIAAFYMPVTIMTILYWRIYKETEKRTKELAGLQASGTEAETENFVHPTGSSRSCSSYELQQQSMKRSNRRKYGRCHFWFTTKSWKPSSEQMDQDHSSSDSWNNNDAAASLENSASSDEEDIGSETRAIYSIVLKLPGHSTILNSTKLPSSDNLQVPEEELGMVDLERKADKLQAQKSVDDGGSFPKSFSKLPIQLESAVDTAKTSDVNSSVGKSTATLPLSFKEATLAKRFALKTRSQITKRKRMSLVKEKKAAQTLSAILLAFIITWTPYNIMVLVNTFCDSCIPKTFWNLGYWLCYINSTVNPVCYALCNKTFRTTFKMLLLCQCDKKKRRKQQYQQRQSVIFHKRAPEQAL
# T1 sequence (P07550 whole entry): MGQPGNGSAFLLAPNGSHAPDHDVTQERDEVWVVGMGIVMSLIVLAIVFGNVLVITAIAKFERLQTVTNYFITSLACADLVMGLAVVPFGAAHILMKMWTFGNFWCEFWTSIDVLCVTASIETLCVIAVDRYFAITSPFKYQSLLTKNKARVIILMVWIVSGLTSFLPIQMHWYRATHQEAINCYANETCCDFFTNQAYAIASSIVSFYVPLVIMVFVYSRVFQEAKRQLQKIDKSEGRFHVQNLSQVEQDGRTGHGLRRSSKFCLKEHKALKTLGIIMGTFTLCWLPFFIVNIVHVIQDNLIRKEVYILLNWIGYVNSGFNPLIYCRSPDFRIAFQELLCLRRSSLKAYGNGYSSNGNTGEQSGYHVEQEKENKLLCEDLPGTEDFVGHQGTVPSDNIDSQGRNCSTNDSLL
SMILES,EC50 [1] [nM],β2 Intrinsic Activity [1],IC50 [2] [nM]
"Cc1nc(C(=O)N2CCOC3(CCN(CCc4ccc(CCOCCC(=O)N(CCNCCc5ccc(O)c6c5OCC(=O)N6)C5CCCCCC5)cc4)CC3)C2)cs1 [Example 5, N-Cycloheptyl-N-(2-(2-(5-hydroxy-3-oxo-3,4-dihydro-2H-benzo[b][1,4]oxazin-8-yl)ethylamino)ethyl)-3-(4-(2-(4-(2-methylthiazole-4-carbonyl)-1-oxa-4,9-diazaspiro[5.5]undecan-9-yl)ethyl)phenethoxy)propanamide ditrifluoroacetate]",20,0.9,0.2
"CCN(CCNCCc1ccc(O)c2[nH]c(=O)sc12)C(=O)CCOCCc1ccc(F)c(CN2CCC3(CC2)CN(C(=O)c2csc(C(C)C)n2)CCO3)c1 [Example 44, N-Ethyl-3-(4-fluoro-3-((4-(2-isopropylthiazole-4-carbonyl)-1-oxa-4,9-diazaspiro[5.5]undecan-9-yl)methyl)phenethoxy)-N-(2-(2-(4-hydroxy-2-oxo-2,3-dihydrobenzo[d]thiazol-7-yl)ethylamino)ethyl)propanamide]",501,1.1,0.501
"CCN(CCNCCc1ccc(O)c2c1OCC(=O)N2)C(=O)CCOCCc1cccc(CCN2CC3(C2)CN(C(=O)c2csc(C(C)C)n2)CCO3)c1 [Example 177, N-ethyl-N-(2-(2-(5-hydroxy-3-oxo-3,4-dihydro-2H-benzo[b][1,4]oxazin-8-yl)ethylamino)ethyl)-3-(3-(2-(8-(2-isopropylthiazole-4-carbonyl)-5-oxa-2,8-diazaspiro[3.5]nonan-2-yl)ethyl)phenethoxy)propanamide, trifluoroacetate salt]",10,1.1,1.26
"CCc1nc(C(=O)N2CCOC3(CCN(Cc4cccc(CCOCCC(=O)N(CCNCCc5ccc(O)c6c5OCC(=O)N6)C5CCCCC5)c4)CC3)C2)cs1 [Example 95, N-Cyclohexyl-3-(3-((4-(2-ethylthiazole-4-carbonyl)-1-oxa-4,9-diazaspiro[5.5]undecan-9-yl)methyl)phenethoxy)-N-(2-(2-(5-hydroxy-3-oxo-3,4-dihydro-2H-benzo[b][1,4]oxazin-8-yl)ethylamino)ethyl)propanamide]",100,1.0,0.126
"CC(C)c1cccc(C(=O)N2CCOC3(CCN(Cc4cccc(CCOCCC(=O)N(CCNCCc5ccc(O)c6c5OCC(=O)N6)C5CCCCC5)c4)CC3)C2)n1 [Example 97, N-Cyclohexyl-N-(2-(2-(5-hydroxy-3-oxo-3,4-dihydro-2H-benzo[b][1,4]oxazin-8-yl)ethylamino)ethyl)-3-(3-((4-(6-isopropylpicolinoyl)-1-oxa-4,9-diazaspiro[5.5]undecan-9-yl)methyl)phenethoxy)propanamide]",158,1.0,1.26
"CCCN(CCNCCc1ccc(O)c2[nH]c(=O)sc12)C(=O)CCOCCc1ccc(CCN2CCC3(CC2)CN(C(=O)c2csc(CC)n2)CCO3)cc1 [Example 3, 3-(4-(2-(4-(2-Ethylthiazole-4-carbonyl)-1-oxa-4,9-diazaspiro[5.5]undecan-9-yl)ethyl)phenethoxy)-N-(2-(2-(4-hydroxy-2-oxo-2,3-dihydrobenzo[d]thiazol-7-yl)ethylamino)ethyl)-N-propylpropanamide ditrifluoroacetate]",200,1.0,1
"O=C1COc2c(CCNCCN(C(=O)CCOCCc3cccc(CN4CCC5(CC4)CN(C(=O)c4ccc6occc6c4)CCO5)c3)C3CCCCC3)ccc(O)c2N1 [Example 84, 3-(3-((4-(Benzofuran-5-carbonyl)-1-oxa-4,9-diazaspiro[5.5]undecan-9-yl)methyl)phenethoxy)-N-cyclohexyl-N-(2-(2-(5-hydroxy-3-oxo-3,4-dihydro-2H-benzo[b][1,4]oxazin-8-yl)ethylamino)ethyl)propanamide]",200,1.0,0.2
"CCC(CC)c1nc(C(=O)N2CCOC3(CCN(Cc4cccc(CCOCCC(=O)N(CCNCCc5ccc(O)c6c5OCC(=O)N6)C5CCCCC5)c4)CC3)C2)cs1 [Example 96, N-Cyclohexyl-N-(2-(2-(5-hydroxy-3-oxo-3,4-dihydro-2H-benzo[b][1,4]oxazin-8-yl)ethylamino)ethyl)-3-(3-((4-(2-(pentan-3-yl)thiazole-4-carbonyl)-1-oxa-4,9-diazaspiro[5.5]undecan-9-yl)methyl)phenethoxy)propanamide]",158,1.0,0.251

# Further lines, results first:
EC50 [1] [nM],β2 Intrinsic Activity [1],IC50 [2] [nM],SMILES
31.6,0.8,0.251,"CCN(CCNCCc1ccc(O)c2c1OCC(=O)N2)C(=O)CCOCCc1cccc(CN2CCC3(CC2)CN(C(=O)c2csc(CC(C)C)n2)CCO3)c1F [Example 69, N-Ethyl-3-(2-fluoro-3-((4-(2-isobutylthiazole-4-carbonyl)-1-oxa-4,9-diazaspiro[5.5]undecan-9-yl)methyl)phenethoxy)-N-(2-(2-(5-hydroxy-3-oxo-3,4-dihydro-2H-benzo[b][1,4]oxazin-8-yl)ethylamino)ethyl)propanamide ditrifluoroacetate]"
251,0.5,0.501,"CCN(CCNCCc1ccc(O)c2[nH]c(=O)sc12)C(=O)CCOCCCc1cccc(CN2CCC3(CC2)CN(C(=O)c2csc(C(C)C)n2)CCO3)c1F [Example 66, N-Ethyl-3-(3-(2-fluoro-3-((4-(2-isopropylthiazole-4-carbonyl)-1-oxa-4,9-diazaspiro[5.5]undecan-9-yl)methyl)phenyl)propoxy)-N-(2-(2-(4-hydroxy-2-oxo-2,3-dihydrobenzo[d]thiazol-7-yl)ethylamino)ethyl)propanamide ditrifluoroacetate]"
25.1,1.1,0.1,"CC(C)c1nc(C(=O)N2CCOC3(CCN(Cc4cccc(CCOCCC(=O)N(CCNCCc5ccc(O)c6c5OCC(=O)N6)CC(F)F)c4F)CC3)C2)cs1 [Example 73, N-(2,2-Difluoroethyl)-3-(2-fluoro-3-((4-(2-isopropylthiazole-4-carbonyl)-1-oxa-4,9-diazaspiro[5.5]undecan-9-yl)methyl)phenethoxy)-N-(2-(2-(5-hydroxy-3-oxo-3,4-dihydro-2H-benzo[b][1,4]oxazin-8-yl)ethylamino)ethyl)propanamide ditrifluoroacetate]"
12.6,0.8,3.98,"CCCCc1nc(C(=O)N2CCOC3(CCN(Cc4cccc(CCOCCC(=O)N(CC)CCNCCc5ccc(O)c6c5OCC(=O)N6)c4Cl)CC3)C2)cs1 [Example 77, 3-(3-((4-(2-Butylthiazole-4-carbonyl)-1-oxa-4,9-diazaspiro[5.5]undecan-9-yl)methyl)-2-chlorophenethoxy)-N-ethyl-N-(2-(2-(5-hydroxy-3-oxo-3,4-dihydro-2H-benzo[b][1,4]oxazin-8-yl)ethylamino)ethyl)propanamide ditrifluoroacetate]"
20,1.0,1.26,"CC(C)CN(CCNCCc1ccc(O)c2c1OCC(=O)N2)C(=O)CCOCCc1cccc(CCN2CCC3(CC2)CN(C(=O)c2csc(C(C)C)n2)CCO3)c1 [Example 40, N-(2-(2-(5-Hydroxy-3-oxo-3,4-dihydro-2H-benzo[b][1,4]oxazin-8-yl)ethylamino)ethyl)-N-Isobutyl-3-(3-(2-(4-(2-isopropylthiazole-4-carbonyl)-1-oxa-4,9-diazaspiro[5.5]undecan-9-yl)ethyl)phenethoxy)propanamide ditrifluoroacetate]"
